pEC50: −log10 of the molar value.
Experiment: -log concentration required to induce 50% maximum lipogenic activity against Peroxisome proliferator activated receptor gamma

Row | pEC50 | SMILES
1 | 6.75 | CN(CCOc1ccc(CC(Nc2ccc(Cl)cc2C(=O)c2ccccc2)C(=O)O)cc1)c1nc2ccccc2o1 (stereo unspecified)
2 | 9.37 | CCOC(=O)c1ccccc1NC(Cc1ccc(OCCc2nc(-c3ccccc3)oc2C)cc1)C(=O)O (stereo unspecified)
3 | 6.47 | CN(CCOc1ccc(CC(Nc2ccccc2C(=O)c2ccc(-c3ccccc3)cc2)C(=O)O)cc1)c1nc2ccccc2o1 (stereo unspecified)
4 | > 5.60 | CSc1nc(NC(Cc2ccc(OCCN(C)c3nc4ccccc4o3)cc2)C(=O)O)c(C(=O)c2ccccc2)s1 (stereo unspecified)
5 | 6.12 | Cc1oc(-c2ccccc2)nc1CCOc1ccc(CC(Nc2ccccc2C(=O)c2cccc(CO)c2)C(=O)O)cc1 (stereo unspecified)
6 | 6.44 | CNC(=O)c1ccccc1NC(Cc1ccc(OCCc2nc(-c3ccccc3)oc2C)cc1)C(=O)O (stereo unspecified)
7 | 6.05 | CN(CCOc1ccc(CC(Nc2ccccc2C(=O)c2cccc(OCc3ccccc3)c2)C(=O)O)cc1)c1nc2ccccc2o1 (stereo unspecified)
8 | 7.02 | COc1ccc(C(=O)c2ccccc2NC(Cc2ccc(OCCN(C)c3nc4ccccc4o3)cc2)C(=O)O)cc1 (stereo unspecified)
9 | 7.16 | CN(CCOc1ccc(CC(Nc2ccccc2C(=O)c2ccc(C(F)(F)F)cc2)C(=O)O)cc1)c1nc2ccccc2o1 (stereo unspecified)
10 | 8.49 | Cc1oc(-c2ccccc2)nc1CCOc1ccc(CC(Nc2ccccc2C(=O)OC(C)C)C(=O)O)cc1 (stereo unspecified)
11 | < 6.00 | Cc1oc(-c2ccccc2)nc1CCOc1ccc(CC(Nc2ccccc2C(=O)N(C)C)C(=O)O)cc1 (stereo unspecified)
12 | 7.57 | CN(CCOc1ccc(CC(Nc2ccccc2C(=O)c2cccc(C(F)(F)F)c2)C(=O)O)cc1)c1nc2ccccc2o1 (stereo unspecified)
13 | 5.93 | Cc1oc(-c2ccccc2)nc1CCOc1ccc(CC(Nc2ccccc2C(=O)c2cccc(CN(C)C)c2)C(=O)O)cc1 (stereo unspecified)
14 | 7.77 | Cc1oc(-c2ccccc2)nc1CCOc1ccc(CC(Nc2ccccc2C(=O)c2cccnc2)C(=O)O)cc1 (stereo unspecified)
15 | 6.81 | COc1cccc(C(=O)c2ccccc2NC(Cc2ccc(OCCN(C)c3nc4ccccc4o3)cc2)C(=O)O)c1 (stereo unspecified)
16 | 7.92 | Cc1ccc(C(=O)c2ccccc2NC(Cc2ccc(OCCN(C)c3nc4ccccc4o3)cc2)C(=O)O)cc1 (stereo unspecified)
17 | 6.17 | CN(CCOc1ccc(CC(Nc2ccccc2C(=O)c2ccc(OCc3ccccc3)cc2)C(=O)O)cc1)c1nc2ccccc2o1 (stereo unspecified)
18 | 7.18 | CN(CCOc1ccc(CC(Nc2ccccc2C(=O)C2CCCCCC2)C(=O)O)cc1)c1nc2ccccc2o1 (stereo unspecified)
19 | 7.85 | Cc1cccc(C(=O)c2ccccc2NC(Cc2ccc(OCCN(C)c3nc4ccccc4o3)cc2)C(=O)O)c1 (stereo unspecified)
20 | 8.85 | CN(CCOc1ccc(CC(Nc2cscc2C(=O)c2ccccc2)C(=O)O)cc1)c1nc2ccccc2o1 (stereo unspecified)
21 | 7.62 | CN(CCOc1ccc(CC(Nc2ccccc2C(=O)C2CCCC2)C(=O)O)cc1)c1nc2ccccc2o1 (stereo unspecified)

Row | pEC50 | SMILES
22 | 7.15 | CN(CCOc1ccc(CC(Nc2ccccc2C(=O)c2ccccc2C(F)(F)F)C(=O)O)cc1)c1nc2ccccc2o1 (stereo unspecified)
23 | 7.11 | CN(CCOc1ccc(CC(Nc2ccccc2C(=O)c2cccs2)C(=O)O)cc1)c1nc2ccccc2o1 (stereo unspecified)
24 | 6.88 | Cc1oc(-c2ccccc2)nc1CCOc1ccc(CC(Nc2ccccc2C(=O)c2cccc(N)c2)C(=O)O)cc1 (stereo unspecified)
25 | 6.30 | COc1ccccc1C(=O)c1ccccc1NC(Cc1ccc(OCCN(C)c2nc3ccccc3o2)cc1)C(=O)O (stereo unspecified)
26 | 7.02 | CN(CCOc1ccc(CC(Nc2sccc2C(=O)c2ccccc2)C(=O)O)cc1)c1nc2ccccc2o1 (stereo unspecified)
27 | 6.97 | Cc1oc(-c2ccccc2)nc1CCOc1ccc(CC(Nc2ccccc2C(=O)c2ccncc2)C(=O)O)cc1 (stereo unspecified)
28 | 6.43 | Cc1oc(-c2ccccc2)nc1CCOc1ccc(C[C@@H](Nc2ccccc2C(=O)C2CCCCC2)C(=O)O)cc1
29 | 6.01 | Cc1oc(-c2ccccc2)nc1CCOc1ccc(CC(Nc2ccccc2C(=O)c2ccc(CN(C)C)cc2)C(=O)O)cc1 (stereo unspecified)
30 | 7.89 | CCCOC(=O)c1ccccc1NC(Cc1ccc(OCCc2nc(-c3ccccc3)oc2C)cc1)C(=O)O (stereo unspecified)
31 | < 5.00 | Cc1oc(-c2ccccc2)nc1CCOc1ccc(CC(Nc2ccccc2C(=O)O)C(=O)O)cc1 (stereo unspecified)
32 | 8.36 | CN(CCOc1ccc(CC(Nc2ccccc2C(=O)c2ccccc2)C(=O)O)cc1)c1nc2ccccc2o1 (stereo unspecified)
33 | 6.76 | Cc1oc(-c2ccccc2)nc1CCOc1ccc(CC(Nc2ccccc2C(=O)c2ccc(CO)cc2)C(=O)O)cc1 (stereo unspecified)
34 | 8.46 | CN(CCOc1ccc(CC(Nc2ccsc2C(=O)c2ccccc2)C(=O)O)cc1)c1nc2ccccc2o1 (stereo unspecified)
35 | 7.20 | Cc1ccc(NC(Cc2ccc(OCCN(C)c3nc4ccccc4o3)cc2)C(=O)O)c(C(=O)c2ccccc2)c1 (stereo unspecified)
36 | 8.16 | Cc1ccccc1C(=O)c1ccccc1NC(Cc1ccc(OCCN(C)c2nc3ccccc3o2)cc1)C(=O)O (stereo unspecified)
37 | 7.14 | CN(CCOc1ccc(CC(Nc2ccccc2C(=O)c2ccsc2)C(=O)O)cc1)c1nc2ccccc2o1 (stereo unspecified)
38 | 8.07 | CN(CCOc1ccc(C[C@H](Nc2ccccc2C(=O)C2CCCCC2)C(=O)O)cc1)c1nc2ccccc2o1
39 | 6.14 | CN(CCOc1ccc(CC(Nc2ccncc2C(=O)c2ccccc2)C(=O)O)cc1)c1nc2ccccc2o1 (stereo unspecified)
40 | 8.57 | CN(CCOc1ccc(CC(Nc2ccccc2C(=O)c2cccc3ccccc23)C(=O)O)cc1)c1nc2ccccc2o1 (stereo unspecified)
41 | 5.80 | Cc1oc(-c2ccccc2)nc1CCOc1ccc(CC(Nc2ccccc2C(=O)c2cccc(C(=O)O)c2)C(=O)O)cc1 (stereo unspecified)

Reference: BindingDB's records for doi:10.1021/jm980414r (Glaxo Wellcome Research and Development, 1998)
